Data: US4921850A, “3-propenylcephem derivative” (Eisai Co., Ltd., priority 1986, dated 1990)
≈ marks a conversion by molar mass, not a printed value. Read-outs that look alike come from different tables or passages of the source.

What was measured:
Assay in all cases: Anti-bacterial activity (MIC), agar dilution
Type in all cases: cell-based
[1] = system: Pseud. aeruginosa EP-01; details: Pseud. aeruginosa EP-01, agar dilution, about 10^6 CFU/ml, 18 hours, 37° C.
Procedure: (§1) MIC (μg/ml) were determined by an agar dilution method [Chemotherapy (Japan), 29, 76-79, 1981]. Overnight cultures of the bacterial strains in Mueller-Hinton broth were diluted to final concentration of about 10^6 CFU/ml, and 5 μl of each bacterial suspension was spotted onto Mueller-Hinton agar plates that contained twofold serial dilutions of antibiotics. MICs were measured after incubation for 18 hours at 37° C.

[2] = system: Staph. aureus 209-P; details: Staph. aureus 209-P, agar dilution, about 10^6 CFU/ml, 18 hours, 37° C.
Procedure: as §1

[3] = system: Morganella morganii EP-14; details: about 10^6 CFU/ml, 37° C.
Procedure: as §1

[4] = system: Kleb. pneumoniae EK-6; details: Kleb. pneumoniae EK-6, agar dilution, about 10^6 CFU/ml, 18 hours, 37° C.
Procedure: as §1

[5] = system: Escher. coli NIHJ
Procedure: as §1

[6] = system: Ser. marcescens ES-75
Procedure: as §1

[7] = Escher. coli NIHJ, agar dilution, about 10^6 CFU/ml, 18 hours, 37° C.
[8] = Ser. marcescens ES-75, agar dilution, about 10^6 CFU/ml, 18 hours, 37° C.
[9] = Pseudomonas aeruginosa, EP01, 18 h, read-out: MIC
[10] = Staphylococcus aureus, 209P, 18 h, read-out: MIC
[11] = Morganella morganii, EP14, 18 h, read-out: MIC
[12] = Klebsiella pneumoniae, EK6, 18 h, read-out: MIC
[13] = Serratia marcescens, ES75, 18 h, Ser. marcescens ES-75, agar dilution, about 10^6 CFU/ml, 18 hours, 37° C., read-out: MIC
[14] = Escherichia coli, 18 h, Escher. coli NIHJ, agar dilution, about 10^6 CFU/ml, 18 hours, 37° C., read-out: MIC

| MIC [1, 9] | MIC [2, 10] | MIC [3, 11] | MIC [4, 12] | MIC [6, 13] | MIC [5, 14] | Structure (SMILES) | MIC [1] | MIC [2] | MIC ([3]; 18 hours) | MIC [4] | MIC [5, 7] | MIC [6, 8] | MIC ([5]; Escherichia coli, 18 h) | MIC ([6]; Serratia marcescens, ES75, 18 h) |
| --- | --- | --- | --- | --- | --- | --- | --- | --- | --- | --- | --- | --- | --- | --- |
| – | – | – | – | – | – | NC(=O)C[N+]1(C/C=C/C2=C(C(=O)[O-])N3C(=O)[C@@H](NC(=O)/C(=N\OCF)c4nsc(N)n4)[C@H]3SC2)CCC(O)C1 (stereo partly drawn) [Example 9-3, 7β-[2-(5-Amino-1,2,4-thiadiazol-3-yl)-(Z)-2-fluoromethoxyiminoacetamido]-3-[(E)-3-(1-carbamoylmethyl-3-hydroxy-1-pyrrolidinio)-1-propen-1-yl]-3-cephem-4-carboxylate] | 0.8 µg/mL (≈ 1.37 µM) | 0.4 µg/mL (≈ 0.684 µM) | ≤ 0.025 µg/mL | ≤ 0.025 µg/mL | ≤ 0.025 µg/mL | ≤ 0.025 µg/mL | – | – |
| 1.56 µg/mL (≈ 2.73 µM) | 0.4 µg/mL (≈ 0.7 µM) | ≤ 0.025 µg/mL | ≤ 0.025 µg/mL | ≤ 0.025 µg/mL | 0.05 µg/mL (≈ 0.0875 µM) | Nc1nc(/C(=N/OCF)C(=O)N[C@@H]2C(=O)N3C(C(=O)[O-])=C(/C=C/C[N+]4(CCO)CCC(O)C4)CS[C@H]23)ns1 (stereo partly drawn) [Example 15-1] | – | – | – | – | – | – | – | – |
| – | – | – | – | – | – | Nc1nc(/C(=N/OCF)C(=O)N[C@@H]2C(=O)N3C(C(=O)[O-])=C(/C=C/C[N+]4(CCO)CCC(O)C4)CS[C@H]23)ns1 (stereo partly drawn) [Example 15-2] | 1.56 µg/mL (≈ 2.73 µM) | 0.4 µg/mL (≈ 0.7 µM) | ≤ 0.025 µg/mL | ≤ 0.025 µg/mL | ≤ 0.025 µg/mL | ≤ 0.025 µg/mL | – | – |
| 0.8 µg/mL (≈ 1.37 µM) | 0.2 µg/mL (≈ 0.342 µM) | ≤ 0.025 µg/mL | ≤ 0.025 µg/mL | ≤ 0.025 µg/mL | ≤ 0.025 µg/mL | Nc1nc(/C(=N/OCF)C(=O)N[C@@H]2C(=O)N3C(C(=O)[O-])=C(/C=C/C[N+]4(CCO)CCC[C@@H]4CO)CS[C@H]23)ns1 (stereo partly drawn) [Example 16] | – | – | – | – | – | – | – | – |
| 0.8 µg/mL (≈ 1.34 µM) | 0.4 µg/mL (≈ 0.668 µM) | ≤ 0.025 µg/mL | ≤ 0.025 µg/mL | ≤ 0.025 µg/mL | ≤ 0.025 µg/mL | NC(=O)C[N+]1(C/C=C/C2=C(C(=O)[O-])N3C(=O)[C@@H](NC(=O)/C(=N\OCF)c4nsc(N)n4)[C@H]3SC2)CCC[C@@H]1CO (stereo partly drawn) [Example 17] | – | – | – | – | – | – | – | – |
| 1.56 µg/mL (≈ 2.81 µM) | 0.2 µg/mL (≈ 0.36 µM) | ≤ 0.025 µg/mL | ≤ 0.025 µg/mL | 0.05 µg/mL (≈ 0.09 µM) | ≤ 0.025 µg/mL | Nc1nc(/C(=N/OCF)C(=O)N[C@@H]2C(=O)N3C(C(=O)[O-])=C(/C=C/C[N+]4(CCO)CCCC4)CS[C@H]23)ns1 [Example 20] | – | – | – | – | – | – | – | – |
| 3.13 µg/mL (≈ 5.64 µM) | 0.2 µg/mL (≈ 0.361 µM) | 0.05 µg/mL (≈ 0.0902 µM) | 0.05 µg/mL (≈ 0.0902 µM) | 0.2 µg/mL (≈ 0.361 µM) | 0.05 µg/mL (≈ 0.0902 µM) | NCC[N+]1(C/C=C/C2=C(C(=O)[O-])N3C(=O)[C@@H](NC(=O)/C(=N\OCF)c4nsc(N)n4)[C@H]3SC2)CCCC1 [Example 22] | – | – | – | – | – | – | – | – |
| 1.56 µg/mL (≈ 2.74 µM) | 0.2 µg/mL (≈ 0.352 µM) | ≤ 0.025 µg/mL | ≤ 0.025 µg/mL | ≤ 0.025 µg/mL | ≤ 0.025 µg/mL | C[N+]1(C/C=C/C2=C(C(=O)[O-])N3C(=O)[C@@H](NC(=O)/C(=N\OCF)c4nsc(N)n4)[C@H]3SC2)CCN(C=O)CC1 [Example 24] | – | – | – | – | – | – | – | – |
| 0.8 µg/mL (≈ 1.38 µM) | 0.2 µg/mL (≈ 0.344 µM) | 0.1 µg/mL (≈ 0.172 µM) | 0.1 µg/mL (≈ 0.172 µM) | 0.4 µg/mL (≈ 0.688 µM) | 0.1 µg/mL (≈ 0.172 µM) | CC(=N)N1CC[N+](C)(C/C=C/C2=C(C(=O)[O-])N3C(=O)[C@@H](NC(=O)/C(=N\OCF)c4nsc(N)n4)[C@H]3SC2)CC1 [Example 26] | – | – | – | – | – | – | – | – |
| 1.56 µg/mL (≈ 2.54 µM) | 0.4 µg/mL (≈ 0.651 µM) | 0.05 µg/mL (≈ 0.0813 µM) | ≤ 0.025 µg/mL | 0.1 µg/mL (≈ 0.163 µM) | 0.05 µg/mL (≈ 0.0813 µM) | Nc1nc(/C(=N/OCF)C(=O)N[C@@H]2C(=O)N3C(C(=O)[O-])=C(/C=C/C[N+]4(CCO)CCN(CCO)CC4)CS[C@H]23)ns1 [Example 27] | – | – | – | – | – | – | – | – |
| 1.56 µg/mL (≈ 2.54 µM) | 0.4 µg/mL (≈ 0.652 µM) | 0.05 µg/mL (≈ 0.0815 µM) | 0.05 µg/mL (≈ 0.0815 µM) | 0.2 µg/mL (≈ 0.326 µM) | 0.05 µg/mL (≈ 0.0815 µM) | NC(=O)N1CC[N+](C/C=C/C2=C(C(=O)[O-])N3C(=O)[C@@H](NC(=O)/C(=N\OCF)c4nsc(N)n4)[C@H]3SC2)(CCO)CC1 [Example 28] | – | – | – | – | – | – | – | – |

| Structure (SMILES) | MIC [1, 9] | MIC [2, 10] | MIC [3, 11] | MIC [4, 12] | MIC [6, 13] | MIC [5, 14] | MIC [1] | MIC [2] | MIC ([3]; 18 hours) | MIC [4] | MIC [5, 7] | MIC [6, 8] | MIC ([5]; Escherichia coli, 18 h) | MIC ([6]; Serratia marcescens, ES75, 18 h) |
| --- | --- | --- | --- | --- | --- | --- | --- | --- | --- | --- | --- | --- | --- | --- |
| N#CC[N+]1(C/C=C/C2=C(C(=O)[O-])N3C(=O)[C@@H](NC(=O)/C(=N\OCF)c4nsc(N)n4)[C@H]3SC2)CCCC1 [Example 14] | 0.8 µg/mL (≈ 1.45 µM) | 0.2 µg/mL (≈ 0.363 µM) | ≤ 0.025 µg/mL | ≤ 0.025 µg/mL | 0.05 µg/mL (≈ 0.0908 µM) | – | – | – | – | – | – | – | ≤ 0.025 µg/mL | – |
| NC(=O)C[N+]1(C/C=C/C2=C(C(=O)[O-])N3C(=O)[C@@H](NC(=O)/C(=N\OCF)c4nsc(N)n4)[C@H]3SC2)CCCC1 [Example 19] | 0.8 µg/mL (≈ 1.41 µM) | 0.2 µg/mL (≈ 0.352 µM) | ≤ 0.025 µg/mL | ≤ 0.025 µg/mL | – | ≤ 0.025 µg/mL | – | – | – | – | – | – | – | 0.5 µg/mL (≈ 0.879 µM) |
